Values after ≈ are worked out from the molar mass of the structure shown.
Legend:
[1] = test system: Mycobacterium tuberculosis; test: Antimycobacterial activity against GFP-fused Mycobacterium tuberculosis H37Rv after 7 days by fluorescence assay; format: functional; details: 168 h
[2] = test system: Mycobacterium tuberculosis; test: Antimycobacterial activity against Mycobacterium tuberculosis H37Rv after overnight incubation by REMA method; format: functional
[3] = test system: Mycobacterium tuberculosis; test: Antimycobacterial activity against Mycobacterium tuberculosis after 5 days by turbidity assay; format: functional; details: 120 h
[4] = molecular target: T1, Decaprenylphosphoryl-beta-D-ribose oxidase (Mycobacterium tuberculosis (strain ATCC 25618 / H37Rv)) (UniProt P9WJF1); test: Inhibition of Mycobacterium tuberculosis H37Rv DprE1 at 50 uM relative to control
T1 sequence (whole entry): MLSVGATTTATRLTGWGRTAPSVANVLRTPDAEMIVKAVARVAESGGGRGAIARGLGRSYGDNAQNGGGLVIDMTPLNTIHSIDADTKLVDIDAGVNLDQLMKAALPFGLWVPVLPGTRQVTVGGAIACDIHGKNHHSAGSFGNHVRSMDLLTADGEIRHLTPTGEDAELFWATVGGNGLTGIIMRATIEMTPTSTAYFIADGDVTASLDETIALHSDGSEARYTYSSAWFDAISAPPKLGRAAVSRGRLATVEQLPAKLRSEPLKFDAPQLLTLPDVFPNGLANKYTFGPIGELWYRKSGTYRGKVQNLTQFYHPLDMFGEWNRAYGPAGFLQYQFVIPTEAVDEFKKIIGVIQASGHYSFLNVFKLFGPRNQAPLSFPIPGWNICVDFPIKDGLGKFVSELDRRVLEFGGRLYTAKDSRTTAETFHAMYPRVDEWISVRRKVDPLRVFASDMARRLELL

[5] = test system: Mycobacterium tuberculosis; test: Antimycobacterial activity against Mycobacterium tuberculosis H37Rv infected in human primary macrophages assessed as reduction in colony forming unit at 5 uM after 2 hrs followed by compound wash out and measured after 7 days by serial dilution method relative to control; format: functional
[6] = test system: Mycobacterium tuberculosis; test: Antimycobacterial activity against Mycobacterium tuberculosis H37Rv infected in C57BL/6 mouse primary macrophages assessed as reduction in colony forming unit at 5 uM after 2 hrs followed by compound wash out and measured after 7 days by serial dilution method relative to control; format: functional
[7] = molecular target: T2, Decaprenylphosphoryl-beta-D-ribose oxidase (Mycobacterium tuberculosis (strain ATCC 25618 / H37Rv), UniProt P9WJF1); test: Inhibition of Mycobacterium tuberculosis H37Rv DprE1
T2 sequence (P9WJF1 whole entry): T1 sequence (whole entry)

[8] = test system: Mycobacterium tuberculosis; test: Antimycobacterial activity against Mycobacterium tuberculosis H37Rv after 24 hrs by REMA method; format: functional
[9] = Inhibition of Mycobacterium tuberculosis DprE1 using FPR as substrate by resazurin dye-based fluorescence assay
[10] = Binding affinity to Mycobacterium tuberculosis DprE1
[11] = test system: Mycobacterium tuberculosis; test: Antimycobacterial activity against GFP-fused Mycobacterium tuberculosis H37Rv by resazurin dye-based micro-broth dilution method; format: functional
[12] = molecular target: T2, Decaprenylphosphoryl-beta-D-ribose oxidase; test: Inhibition of Mycobacterium tuberculosis H37Rv DprE1 using FPR as substrate preincubated for 6.5 hrs followed by substrate addition by resazurin dye-based spectrofluorimetric analysis
[13] = molecular target: T1, Decaprenylphosphoryl-beta-D-ribose oxidase (Mycobacterium tuberculosis (strain ATCC 25618 / H37Rv)); test: Ratio of IC50 for inhibition of Mycobacterium tuberculosis H37Rv DprE1 using FPR as substrate in presence of SAM by resazurin dye-based spectrofluorimetric analysis to IC50 for inhibition of Mycobacterium tuberculosis H37Rv DprE1 using FPR as substrate in absence of SAM by resazurin dye-based spectrofluorimetric analysis
[14] = molecular target: T1, Decaprenylphosphoryl-beta-D-ribose oxidase (Mycobacterium tuberculosis (strain ATCC 25618 / H37Rv)); test: Inhibition of GFP-fused Mycobacterium tuberculosis H37Rv DprE1 after 72 hrs by fluorescence assay
[15] = molecular target: T2, Decaprenylphosphoryl-beta-D-ribose oxidase; test: Inhibition of N-terminal His6-thioredoxin tagged Mycobacterium tuberculosis H37Rv DprE1 expressed in Escherichia coli BL21(DE3) using FPR as substrate by resazurin dye-based fluorescence assay
[16] = test system: Mycobacterium tuberculosis; test: Bactericidal activity against recombinant GFP-fused Mycobacterium tuberculosis H37Rv by resazurin dye-based assay; format: functional
[17] = test system: Mycobacterium tuberculosis; test: Antimycobacterial activity against recombinant GFP-fused Mycobacterium tuberculosis H37Rv after 10 days by resazurin dye-based assay; format: functional; details: 240 h
Cytochrome P450 2C9 = Cytochrome P450 2C9 (Homo sapiens, UniProt P11712); test: Inhibition of CYP2C9 in human liver microsomes using diclofenac as substrate after 30 mins by in presence of NADPH by LC-MS/MS analysis; format: ADME
[18] = test system: Mycobacterium tuberculosis; test: Antimycobacterial activity against Mycobacterium tuberculosis in 7H9 medium; format: functional, organism-based
[19] = test system: Mycobacterium tuberculosis; test: Antimycobacterial activity against Mycobacterium tuberculosis in biofilm medium; format: functional, organism-based

Sequence of Cytochrome P450 2C9 (P11712 whole entry): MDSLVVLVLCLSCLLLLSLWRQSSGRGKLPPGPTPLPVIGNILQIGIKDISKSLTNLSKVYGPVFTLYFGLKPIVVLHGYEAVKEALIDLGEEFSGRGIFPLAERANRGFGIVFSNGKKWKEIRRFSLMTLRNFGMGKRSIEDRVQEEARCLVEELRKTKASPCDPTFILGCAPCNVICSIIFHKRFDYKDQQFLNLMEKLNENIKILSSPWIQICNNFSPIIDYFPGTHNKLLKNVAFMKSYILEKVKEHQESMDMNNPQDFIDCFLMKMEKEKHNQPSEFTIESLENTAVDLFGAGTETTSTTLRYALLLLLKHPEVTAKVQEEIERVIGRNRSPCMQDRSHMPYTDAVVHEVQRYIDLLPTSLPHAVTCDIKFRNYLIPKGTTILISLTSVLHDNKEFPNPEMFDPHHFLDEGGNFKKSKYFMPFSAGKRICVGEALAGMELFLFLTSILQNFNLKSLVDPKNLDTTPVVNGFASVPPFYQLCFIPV

O=C(NCCOc1ccccc1F)c1cc([N+](=O)[O-])cc([N+](=O)[O-])c1
MIC [1]: 0.7 µM (≈ 0.244 µg/mL)

Cc1nc2cc(Br)cc([N+](=O)[O-])c2nc1-c1ccccc1
MIC [2]: 3.1 µM (≈ 1.07 µg/mL)

Nc1cc(C(=O)NCCOCc2cccc(Cl)c2)cc([N+](=O)[O-])c1
MIC [1]: > 20 µM

Cc1nc2cc(C(F)(F)F)cc([N+](=O)[O-])c2nc1-c1ccccc1
MIC [2]: 0.75 µM (≈ 0.25 µg/mL)

Cc1ccc(C(F)(F)F)cc1CNCc1cc2c(C3CC3)nn(-c3ccccc3)c2[nH]c1=O
MIC [3]: 0.1 µM (≈ 0.0452 µg/mL)

CCOC(=O)c1nc2ccc(C(F)(F)F)cc2nc1NCc1ccc(OC)cc1
MIC99 [2]: 3.1 µM (≈ 1.26 µg/mL)
inhibition [4]: 54%

COc1ccc(OCCNC(=O)c2cc([N+](=O)[O-])cc([N+](=O)[O-])c2)cc1
fold change (FC) [5]: 10
MIC [1]: 0.2 µM (≈ 0.0723 µg/mL)
fold change (FC) [6]: 10

N#Cc1ccc(CNc2nc3cc(C(F)(F)F)ccc3nc2C(=O)O)cc1
IC50 [7]: 0.067 µM
MIC99 [2]: 50 µM (≈ 18.6 µg/mL)

CCCCN1CCN(c2nc(=O)c3cc(C(F)(F)F)cc(-n4cccc4)c3s2)CC1
MIC [8]: 0.62 mg/L (≈ 1.42 µM)

O=C(C1CCN(c2nnc(-n3cccc3)s2)CC1)N1CCC(Cc2ccccc2)CC1
IC50 [9]: 0.054 µM
Kd [10]: 0.25 µM

NNC(=O)c1ccncc1 [ISONIAZID]
MIC [11]: 20 to 200 mg/L (≈ 146 to 1460 µM)

CCOc1ccc(CNc2nc3cc(C(F)(F)F)ccc3nc2C(=O)O)cc1
IC50 [7]: 0.088 µM
MIC99 [2]: 3.1 µM (≈ 1.21 µg/mL)

C[C@H]1COC2(CCN(c3nc(=O)c4cc(C(F)(F)F)cc(-n5cccc5)c4s3)CC2)O1
MIC [8]: 0.16 mg/L (≈ 0.354 µM)

Cc1ccc(C)n1-c1cc(C(F)(F)F)cc2c(=O)nc(N3CCC4(CC3)OC[C@H](C)O4)sc12
MIC [8]: 2.5 mg/L (≈ 5.21 µM)

O=C(NCCOCc1cccc(Cl)c1)c1cc(NO)cc([N+](=O)[O-])c1
MIC [1]: > 20 µM

O=C(NCCOCc1cccc(C(F)(F)F)c1)c1cc([N+](=O)[O-])cc([N+](=O)[O-])c1
MIC [1]: 0.2 µM (≈ 0.0827 µg/mL)

Cc1ccc(C(F)(F)F)cc1CNCc1cc2c(C)nn(-c3ccccc3)c2[nH]c1=O
MIC [3]: 0.8 µM (≈ 0.341 µg/mL)

COc1ccc(CNc2nc3cc(C(F)(F)F)ccc3nc2C(=O)O)cc1
IC50 [7]: 0.041 µM
MIC99 [2]: 3.1 µM (≈ 1.17 µg/mL)

O=C(NCCOCc1ccccc1F)c1cc([N+](=O)[O-])cc([N+](=O)[O-])c1
MIC [1]: 0.08 µM (≈ 0.0291 µg/mL)

Cc1c(CCC(=O)N2CCCC2)c(=O)n2c([nH]c3ccccc32)c1C#N
IC50 [12]: 0.07 µM
Ratio IC50 [13]: 36

COc1ccc(O[C@H]2CCCN(C(=O)c3cc([N+](=O)[O-])cc([N+](=O)[O-])c3)C2)cc1
MIC [1]: 20 µM (≈ 8.03 µg/mL)

Cc1ccc(C(F)(F)F)cc1CNCc1cc2c(C(C)C)nn(-c3ccccc3)c2[nH]c1=O
MIC [3]: 0.4 µM (≈ 0.182 µg/mL)

O=C(O)c1nc2ccc(C(F)(F)F)cc2nc1NCc1ccc(F)cc1
IC50 [7]: 0.072 µM
MIC99 [2]: 12.5 µM (≈ 4.57 µg/mL)

CC(C)(C)c1ccc(Cn2cnc([N+](=O)[O-])n2)cc1
IC90 [14]: 0.5 µM

COc1ccc(CNc2nc3cc(C(F)(F)F)ccc3nc2C(=O)O)cc1F
IC50 [7]: 0.08 µM
MIC99 [2]: 6.3 to 12.5 µM (≈ 2.49 to 4.94 µg/mL)

CC[C@@H](CO)NCCN[C@@H](CC)CO [ETHAMBUTOL]
MIC [11]: 1000 to 5000 mg/L (≈ 4890 to 24500 µM)

CCOC(=O)NC(=O)c1ccsc1NC(=O)c1ccn2cnnc2c1
IC50 [15]: 0.06 µM

O=c1nc(N2CCN(CC3CCCCC3)CC2)sc2c(-n3cccc3)cc(C(F)(F)F)cc12
MIC [8]: 0.16 mg/L (≈ 0.336 µM)

COC(=O)c1ccc(O[C@H]2CCN(C(=O)c3cc([N+](=O)[O-])cc([N+](=O)[O-])c3)C2)cc1
MIC [1]: > 20 µM

O=C(NCCOCc1cccc(Cl)c1)c1cccc([N+](=O)[O-])c1
MIC [1]: > 20 µM

O=C(NCCOCc1ccccc1)c1cc([N+](=O)[O-])cc([N+](=O)[O-])c1
MIC [1]: 0.2 µM (≈ 0.0691 µg/mL)

Cc1nc2c([N+](=O)[O-])cc(C(F)(F)F)cc2nc1-c1ccccc1
MIC [2]: 6.25 µM (≈ 2.08 µg/mL)

O=C(O)c1nc2ccc(C(F)(F)F)cc2nc1NCc1ccc(C(F)(F)F)cc1
IC50 [7]: 0.12 µM
MIC99 [2]: 6.3 µM (≈ 2.62 µg/mL)

CCc1nc2cc(Cl)ccn2c1C(=O)NCc1ccc(N2CCN(c3ccc(F)cc3)CC2)cc1
MBC [16]: > 200 µM
IC50 [7]: > 10 µM
MIC [17]: 0.017 µM

C[C@H]1COC2(CCN(c3nc(=O)c4cc(C(F)(F)F)cc([N+](=O)[O-])c4s3)CC2)O1 [BTZ-043]
MIC [11]: 0.001 mg/L (≈ 0.00232 µM)

Cc1ccnc(NC(=O)c2ccsc2NC(=O)c2ccn3cnnc3c2)n1
IC50 [15]: 0.03 µM
IC50 (Cytochrome P450 2C9): > 50 µM

COc1ccc(O[C@H]2CCN(C(=O)c3cc([N+](=O)[O-])cc([N+](=O)[O-])c3)C2)cc1
MIC [1]: 20 µM (≈ 7.75 µg/mL)

O=C(O)c1nc2ccc(C(F)(F)F)cc2nc1NCc1ccc(Cl)cc1
IC50 [7]: 0.05 µM
MIC99 [2]: 3.1 µM (≈ 1.18 µg/mL)

O=C(NCCOCc1cccc(Cl)c1)c1cc([N+](=O)[O-])cc([N+](=O)[O-])c1
MIC [1]: 1 µM (≈ 0.38 µg/mL)

CCOC(=O)NC(=O)c1ccsc1NC(=O)c1nc2ccccc2s1
IC50 [18]: 0.19 mg/L (≈ 0.506 µM)
IC50 [19]: 0.01 mg/L (≈ 0.0266 µM)
